Assay [1] concerns dsDNA. The assay is described as follows: Binding affinity to dsDNA (unknown origin) assessed as adduct formation by measuring bound dsDNA incubated for 48 hrs by ESI-MS analysis. The assay is classed as nucleic-acid assay.
Assay [2] deals with dsDNA. As to the kind of experiment: Binding affinity to dsDNA (unknown origin) assessed as adduct formation by measuring free dsDNA incubated for 48 hrs by ESI-MS analysis. It is filed as nucleic-acid assay. On the set-up: concentration or dose not given beside the values.
For assay [3], the system named is Y79. The assay is described as follows: Cytotoxicity against human Y79 cells assessed as cell viability incubated for 24 hrs under 37 degreeC by PrestoBlue reagent based assay. It is filed as functional. To be noted: Y79, 24 h.
Assay [4] concerns Y79. As to the kind of experiment: Potency index, ratio of melphalan IC50 to test compound IC50 for cytotoxicity against human Y79 cells assessed as cell viability preincubated for 1 hr under 42 degreeC and further incubated under 37 degreeC for 23 hrs by PrestoBlue reagent based assay. The assay is classed as functional. To be noted: time 24 hrs.
In assay [5] the test system is Y79. The assay is described as follows: Potency index, ratio of melphalan IC50 to test compound IC50 for cytotoxicity against human Y79 cells assessed as cell viability incubated for 24 hrs under 37 degreeC by PrestoBlue reagent based assay. The assay is classed as functional.
Assay [6] has as its system RPMI-8226. The assay is described as follows: Cytotoxicity against human RPMI-8226 cells incubated for 48 hrs by resazurin dye based assay. To be noted: RPMI-8226, 48 h. It is filed as functional, cell-based. In general terms: The colour change of resazurin is a common sign of viable cells or microbes.

For the molecule `N[C@@H](Cc1ccc(N(CCCl)CCCl)cc1)C(=O)OCCC(F)(F)C(F)(F)C(F)(F)C(F)(F)F`, the Activity was found to be 49% in assay [1] and 51% in assay [2].
In the case of `N[C@@H](Cc1ccc(N(CCCl)CCCl)cc1)C(=O)OCCC(F)(F)C(F)(F)F`, the Activity in assay [1] was found to be 63%; in assay [2], 37%.
The IC50 is the concentration that inhibits the measured activity by half. With `N[C@@H](Cc1ccc(N(CCCl)CCCl)cc1)C(=O)OCCC(F)(F)C(F)(F)C(F)(F)C(F)(F)C(F)(F)C(F)(F)C(F)(F)C(F)(F)C(F)(F)C(F)(F)F`, the concentration for half-maximal inhibition (IC50) in assay [3] was more than 200 µM.
Regarding `Cl.N[C@@H](Cc1ccc(N(CCCl)CCCl)cc1)C(=O)OCCC(F)(F)F`, the “Ratio IC50” value in assay [4] and in assay [5] was 8 throughout. In addition, the Activity in assay [1] worked out at 74%; in assay [2], 26%.
In the case of `N[C@@H](Cc1ccc(N(CCCl)CCCl)cc1)C(=O)OCCC(F)(F)C(F)(F)C(F)(F)C(F)(F)C(F)(F)C(F)(F)C(F)(F)C(F)(F)F`, the Activity in assay [2] came out at 98%.
In assay [6], `N[C@@H](Cc1ccc(N(CCCl)CCCl)cc1)C(=O)O` yielded an IC50 of 8.9 µM. Further, in assay [2], the Activity worked out at 99%.
Take `N[C@@H](Cc1ccc(N(CCCl)CCCl)cc1)C(=O)OCCC(F)(F)C(F)(F)C(F)(F)C(F)(F)C(F)(F)C(F)(F)F`: the Activity in assay [2] was determined as 92%.

Source of the values: ChEMBL document CHEMBL5550197, “New melphalan derivatives for the treatment of retinoblastoma in combination with thermotherapy” (RSC Med Chem, 2024).
